Experimental findings from patent US20080306076A1, “MODULATION OF CHEMOSENSORY RECEPTORS AND LIGANDS ASSOCIATED THEREWITH” (SENOMYX, INC., priority 2007, published 2008) are described below.

The target of this assay is T1, hT1R1 S172A (Homo sapiens, UniProt Q7RTX1, S172A).
T1 construct: expressed in transfected cells; host or cells: HEK293, transient transfection
T1 sequence (Q7RTX1 21-841 S172A): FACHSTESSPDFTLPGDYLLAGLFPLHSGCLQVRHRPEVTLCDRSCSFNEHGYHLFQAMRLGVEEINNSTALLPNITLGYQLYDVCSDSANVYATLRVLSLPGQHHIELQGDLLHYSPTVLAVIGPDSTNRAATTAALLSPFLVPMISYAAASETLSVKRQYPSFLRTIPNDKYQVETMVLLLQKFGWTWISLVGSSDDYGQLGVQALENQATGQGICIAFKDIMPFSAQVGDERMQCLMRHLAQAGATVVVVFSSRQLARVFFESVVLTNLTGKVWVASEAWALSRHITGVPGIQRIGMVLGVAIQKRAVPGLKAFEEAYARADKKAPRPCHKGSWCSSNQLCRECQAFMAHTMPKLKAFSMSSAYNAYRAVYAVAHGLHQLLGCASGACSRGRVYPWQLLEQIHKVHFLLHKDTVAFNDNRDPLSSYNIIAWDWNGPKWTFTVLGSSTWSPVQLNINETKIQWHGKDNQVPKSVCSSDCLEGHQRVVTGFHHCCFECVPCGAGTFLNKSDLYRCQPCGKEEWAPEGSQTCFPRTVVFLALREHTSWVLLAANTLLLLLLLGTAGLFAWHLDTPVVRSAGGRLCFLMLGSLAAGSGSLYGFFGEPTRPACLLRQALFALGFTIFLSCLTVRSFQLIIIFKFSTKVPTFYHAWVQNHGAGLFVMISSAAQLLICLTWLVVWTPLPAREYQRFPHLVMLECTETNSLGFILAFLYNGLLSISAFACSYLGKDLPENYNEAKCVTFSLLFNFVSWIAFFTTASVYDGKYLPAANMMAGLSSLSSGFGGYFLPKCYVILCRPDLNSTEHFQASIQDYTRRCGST
T1 sequence (Q923K1 21-858 partner): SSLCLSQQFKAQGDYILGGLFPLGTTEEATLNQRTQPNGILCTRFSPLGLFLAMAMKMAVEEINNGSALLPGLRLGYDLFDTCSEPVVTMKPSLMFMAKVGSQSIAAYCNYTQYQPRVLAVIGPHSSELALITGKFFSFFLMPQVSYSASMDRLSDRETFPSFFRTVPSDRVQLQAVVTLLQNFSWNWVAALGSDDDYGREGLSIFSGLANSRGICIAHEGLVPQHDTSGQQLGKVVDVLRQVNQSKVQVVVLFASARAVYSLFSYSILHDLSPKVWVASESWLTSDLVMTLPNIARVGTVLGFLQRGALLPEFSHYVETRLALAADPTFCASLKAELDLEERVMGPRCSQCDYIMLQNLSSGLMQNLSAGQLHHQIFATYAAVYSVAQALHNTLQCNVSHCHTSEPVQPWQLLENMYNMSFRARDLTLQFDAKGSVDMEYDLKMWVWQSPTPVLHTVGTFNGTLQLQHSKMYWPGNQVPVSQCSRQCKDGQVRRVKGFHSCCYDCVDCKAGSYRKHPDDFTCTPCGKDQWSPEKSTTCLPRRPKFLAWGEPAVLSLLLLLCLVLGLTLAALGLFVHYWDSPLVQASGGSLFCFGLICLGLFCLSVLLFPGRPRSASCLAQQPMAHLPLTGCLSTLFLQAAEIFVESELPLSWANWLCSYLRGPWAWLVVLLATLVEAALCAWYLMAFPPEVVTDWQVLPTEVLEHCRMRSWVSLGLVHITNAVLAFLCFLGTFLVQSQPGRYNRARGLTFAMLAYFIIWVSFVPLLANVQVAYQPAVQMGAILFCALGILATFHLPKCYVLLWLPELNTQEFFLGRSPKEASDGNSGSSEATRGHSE
Description: Mutagenesis study, hT1R1 mutant S172A. It counts as cell-based. The note with it: S172 mutant, FIG. 11. The text has this: In order to further define the interaction sites of umami stimuli, we performed site-directed mutagenesis on human T1R1 VFT. The mutagenesis was done using the routine PCR-based method. […] were transiently transfected into HEK293 cell together with the rat T1R3 wild type cDNA, and the transfected cells were characterized using an automated FLIPR machine or a calcium imaging system as described in our previous patent applications.

Regarding `N[C@@H](CCC(=O)O)C(=O)O` [L-Glu, L-glutamate], the “activity against L-Glu” value was “significant reduced activity”.
